Biological target: human SGLT1 (Homo sapiens (Human), UniProt P13866)
Assay: SGLT1 inhibitory activity: 14C-AMG uptake into CHO-K1 cell line stably expressing human SGLT1
Type: cell-based
Details: for IC50: 14C-AMG uptake; for inhibition at 0.1 µM: CHO-K1, at 0.1 uM; for human SGLT1 % Inhibition: at 0.3 uM
How it was run: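 CHO-K1 cells stably expressing human SGLT1 were pre-incubated 20 min in Na(−) buffer (pH 7.4). Test compound in Na(+) buffer with BSA was added with ¹⁴C-AMG (8 kBq) plus unlabelled AMG (2 mM in the added solution) for 1 h at 37 °C.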

[1] = CHO-K1 cells stably expressing human SGLT1
[2] = CHO-K1 cells expressing human SGLT1

human SGLT1, sequence (P13866 whole entry): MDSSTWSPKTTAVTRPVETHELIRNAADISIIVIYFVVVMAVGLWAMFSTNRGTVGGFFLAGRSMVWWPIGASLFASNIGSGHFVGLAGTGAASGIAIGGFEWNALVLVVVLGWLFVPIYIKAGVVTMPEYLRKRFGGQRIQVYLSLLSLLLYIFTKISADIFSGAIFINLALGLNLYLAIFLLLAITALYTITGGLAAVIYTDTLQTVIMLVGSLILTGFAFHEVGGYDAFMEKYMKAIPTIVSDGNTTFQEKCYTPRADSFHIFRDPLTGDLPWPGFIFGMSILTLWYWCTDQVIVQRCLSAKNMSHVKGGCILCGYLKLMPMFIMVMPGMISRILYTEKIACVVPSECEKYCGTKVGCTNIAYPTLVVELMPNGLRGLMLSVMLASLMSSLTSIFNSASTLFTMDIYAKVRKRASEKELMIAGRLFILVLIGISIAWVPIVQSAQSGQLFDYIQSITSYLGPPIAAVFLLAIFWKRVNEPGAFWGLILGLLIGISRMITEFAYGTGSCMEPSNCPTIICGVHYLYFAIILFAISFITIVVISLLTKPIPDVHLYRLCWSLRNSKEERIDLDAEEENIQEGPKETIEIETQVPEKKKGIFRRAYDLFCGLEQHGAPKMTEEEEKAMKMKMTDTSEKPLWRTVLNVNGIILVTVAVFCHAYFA

Compound	IC50 [1]	IC50 [2]	also measured
CC(C)(OCc1cc(F)cc(-c2cc(NC(=O)[C@@H]3CNC(=O)C3)nn2-c2ccc(F)cc2)c1)C(F)(F)F [Example 595]	10 nM	–	–
O=C1C[C@H](C(=O)Nc2cc(-c3cccc(CS(=O)(=O)CC(F)(F)F)c3)n(-c3ccccc3)n2)CN1 [Example 552]	–	–	inhibition at 0.1 µM: 8%
CCCc1cccc(-c2cc(NC(=O)C3CCCC(=O)NC3)nn2-c2ccccc2)c1 (stereo not shown) [Example 256]	–	–	human SGLT1 % Inhibition: 3%
CCCc1cccc(-c2cc(NC(=O)[C@@H]3CNC(=O)C3)nn2-c2ccc(F)c(OC(C)C)c2)c1 [Example 391]	3.75 nM	–	–
CCCc1cccc(-c2cc(NC(=O)[C@@H]3CNC(=O)N3CCOC)nn2-c2ccccc2)c1 [Example 345]	7.9 nM	–	–
O=C1C[C@H](C(=O)Nc2cc(-c3cccc(CO[C@H]4CCCOC4)c3)n(-c3ccccc3)n2)CN1 [Example 539]	–	–	inhibition at 0.1 µM: 35%
CCCc1cccc(-c2cc(NC(=O)C3CCCC(=O)NC3)nn2-c2ccccc2)c1 (stereo not shown) [Example 255]	–	–	human SGLT1 % Inhibition: 7%
CCCc1cccc(-c2cc(NC(=O)C3CNC(=O)C3)nn2CC(C)C)c1 (racemic) [Example 18]	–	31 nM	–
Cc1ccc(-n2nc(NC(=O)[C@H]3CNC(=O)C3)cc2-c2cccc(OC(F)(F)F)c2)cc1 [Example 233]	–	20 nM	–
CCCc1cccc(-c2cc(NC(=O)[C@@H]3CNC(=O)O3)nn2-c2ccccc2)c1 [Example 257]	76 nM	–	–
C[C@H]1C(=O)NC[C@@H]1C(=O)Nc1cc(-c2cccc(OCC(F)(F)F)c2)n(-c2ccc(F)cc2)n1 [Example 212]	–	5.8 nM	–
O=C1CCC(C(=O)Nc2cc(-c3cccc(OC(F)(F)F)c3)n(-c3cccc(F)c3)n2)CN1 (single isomer, unassigned) [Example 168]	–	36 nM	–
CC(C)(OCc1cc(F)cc(-c2cc(NC(=O)[C@@H]3CNC(=O)C3)nn2-c2ccccc2)c1)C(F)(F)F [Example 567]	14 nM	–	–
CCCc1cccc(-c2cc(NC(=O)[C@@H]3CNC(=O)C3)nn2-c2ccc(OCC(F)(F)F)cc2)c1 [Example 375]	13 nM	–	–
C[C@@H](OCc1cc(F)cc(-c2cc(NC(=O)C3CCC(=O)NC3)nn2-c2ccc(Cl)cc2)c1)C(F)(F)F (stereo partly shown) [Example 572]	5.1 nM	–	–
CC(C)(C)c1cccc(-c2cc(NC(=O)C3CCC(=O)NC3)nn2C2CCOCC2)c1 (single isomer, unassigned) [Example 186]	–	75 nM	–
CC1(C)CCC=C(c2cc(NC(=O)[C@H]3CNC(=O)C3)nn2-c2ccccc2)C1 [Example 78]	–	7.7 nM	–
CCCc1cccc(-c2cc(NC(=O)C3CNC(=O)CO3)nn2-c2ccccc2)c1 (stereo not shown) [Example 275]	–	–	inhibition at 0.1 µM: 48%
O=C1C[C@H](C(=O)Nc2cc(-c3cccc(C#CC4CC4)c3)n(-c3ccccc3)n2)CN1 [Example 532]	–	–	inhibition at 0.1 µM: 26%
C[C@@H](OCc1cccc(-c2cc(NC(=O)[C@@H]3CNC(=O)C3)nn2-c2cccc(F)c2)c1)C(F)(F)F [Example 469]	5.2 nM	–	–
CC(C)Oc1cc(-n2nc(NC(=O)[C@@H]3CNC(=O)C3)cc2-c2cccc(COCC(F)(F)F)c2)ccc1F [Example 418]	2.35 nM	–	–
O=C1C[C@@H](C(=O)Nc2cc(-c3cccc(OC(F)(F)F)c3)n(-c3ccc(F)cc3F)n2)CN1 [Example 183]	–	20100 nM	–
CC(C)Oc1cc(F)cc(-n2nc(NC(=O)[C@@H]3CNC(=O)C3)cc2-c2cccc(CO[C@H](C)C(F)(F)F)c2)c1 [Example 535]	2.8 nM	–	–
CCCc1cccc(-c2cc(NC(=O)[C@H]3CNC(=O)C3)nn2-c2ccc(F)cc2)c1 [Example 34]	–	6.8 nM	–
CCCc1cccc(-c2cc(NC(=O)C3CNC(=O)NC3)nn2-c2ccccc2)c1 [Example 251]	–	–	inhibition at 0.1 µM: 41%
CS(=O)(=O)c1cccc(-n2nc(NC(=O)[C@@H]3CNC(=O)C3)cc2-c2cccc(COCC(F)(F)F)c2)c1 [Example 530]	–	–	inhibition at 0.1 µM: 40%
CCCc1cccc(-c2cc(NC(=O)C3CNC(=O)C3CC)nn2-c2ccccc2)c1 (single isomer, unassigned) [Example 309]	49 nM	–	–
CCOc1cc(-n2nc(NC(=O)[C@@H]3CNC(=O)C3)cc2-c2cccc(COCC(F)(F)F)c2)ccc1F [Example 417]	4.3 nM	–	–

Compound	IC50 [1]	IC50 [2]	also measured
CCOc1cccc(-n2nc(NC(=O)[C@@H]3CNC(=O)C3)cc2-c2cccc(OC(F)(F)F)c2)c1F [Example 477]	25 nM	–	–
CCCc1cccc(-c2cc(NC(=O)C3CC[S+]([O-])CC3)nn2-c2ccccc2)c1 (stereo not shown) [Example 317]	–	–	inhibition at 0.1 µM: 40%
C[C@@H](OCc1ccc(F)c(-c2cc(NC(=O)[C@@H]3CNC(=O)C3)nn2-c2ccccc2)c1)C(F)(F)F [Example 427]	–	–	inhibition at 0.1 µM: 49%
C[C@@H]1C[C@H](n2nc(NC(=O)[C@H]3CNC(=O)[C@@H]3C)cc2-c2cccc(OC(F)(F)F)c2)C[C@H](C)O1 [Example 221]	–	–	inhibition at 0.1 µM: 15%
CCCc1cccc(-c2cc(NC(=O)[C@@H]3CNC(=O)C3)nn2-c2ccc(OCC)cc2)c1 [Example 372]	14 nM	–	–
CCCc1cccc(-c2cc(NC(=O)[C@@H]3CNC(=O)C3)nn2-c2cccc(COC(C)C)c2)c1 [Example 459]	4.8 nM	–	–
C[C@@H](OCc1cccc(-c2cc(NC(=O)[C@@H]3CNC(=O)C3)nn2-c2cccc(Cl)c2)c1)C(F)(F)F [Example 506]	4.7 nM	–	–
CCCc1cccc(-c2cc(NC(=O)[C@@H]3CNC(=O)C3)nn2-c2ccc(OCCC(F)(F)F)cc2)c1 [Example 374]	8.8 nM	–	–
C[C@@H](OCc1cc(Cl)cc(-c2cc(NC(=O)[C@H]3CNC(=O)N3)nn2-c2ccc(F)cc2)c1)C(F)(F)F [Example 598]	47 nM	–	–
CCC(F)(F)c1cccc(-c2cc(NC(=O)[C@H]3CNC(=O)[C@@H]3C)nn2-c2ccccc2Cl)c1 [Example 208]	–	1.3 nM	–
CCCc1cccc(-c2cc(NC(=O)C3CCS(=O)(=O)C3)nn2-c2ccccc2)c1 (racemic) [Example 320]	3 nM	–	–
CCCc1cccc(-c2cc(NC(=O)[C@@H]3CNC(=O)C3)nn2-c2c(C)cccc2C)c1 [Example 325]	47 nM	–	–
C[C@H]1C(=O)NC[C@@H]1C(=O)Nc1cc(-c2cccc(C(F)(F)F)c2)n(-c2ccccc2F)n1 [Example 229]	–	3.1 nM	–
CCCc1cccc(-c2cc(NC(=O)[C@@H]3CNC(=O)N3CC(F)(F)F)nn2-c2ccccc2)c1 [Example 384]	48 nM	–	–
C[C@@H]1C[C@@H](n2nc(NC(=O)[C@H]3CNC(=O)C3)cc2-c2cccc(OC(F)(F)F)c2)C[C@H](C)O1 [Example 218]	–	–	inhibition at 0.1 µM: 26%
CCCc1cccc(-c2cc(NC(=O)[C@H]3CNC(=O)C3)nn2CC(F)(F)F)c1 [Example 66]	–	210 nM	–
COc1cccc(-n2nc(NC(=O)[C@@H]3CNC(=O)C3)cc2-c2cccc(COCC(F)(F)F)c2)c1F [Example 480]	6.8 nM	–	–
CC(C)(C)OC(=O)c1cccc(-c2cc(NC(=O)[C@@H]3CNC(=O)C3)nn2-c2ccccc2)c1 [Example 413]	–	–	inhibition at 0.1 µM: 48%
C[C@@H](OCc1cccc(-c2cc(NC(=O)[C@@H]3CCC(=O)N3)nn2-c2ccccc2)c1)C(F)(F)F [Example 547]	43 nM	–	–
CC(C)(O)c1cccc(-c2cc(NC(=O)[C@@H]3CNC(=O)C3)nn2-c2ccccc2)c1 [Example 81]	–	–	inhibition at 0.3 µM (CHO-K1, at 0.3 uM): 43%
C[C@@H](OCc1cccc(-c2cc(NC(=O)[C@H]3CNC(=O)O3)nn2-c2ccccc2)c1)C(F)(F)F [Example 367]	11.5 nM	–	–
CCC(F)(F)c1cccc(-c2cc(NC(=O)C3CCC(=O)NC3)nn2-c2cccc(F)c2)c1 (single isomer, unassigned) [Example 171]	–	8.3 nM	–
CCCc1cccc(-c2cc(NC(=O)C3CNC(=O)C34CC4)nn2-c2ccccc2)c1 (stereo not shown) [Example 361]	–	–	inhibition at 0.1 µM: 33%
CCCc1cccc(-c2cc(NC(=O)[C@@H]3CNC(=O)C3)nn2-c2cccc(C)c2C)c1 [Example 323]	4.8 nM	–	–
CC(C)(OCc1cccc(-c2cc(NC(=O)[C@@H]3CNC(=O)C3)nn2-c2ccc(F)cc2)c1)C(F)(F)F [Example 574]	17 nM	–	–
CCCc1cccc(-c2cc(NC(=O)C3CNC(=O)C3)nn2CC)c1 (racemic) [Example 24]	–	130 nM	–
C[C@H]1C(=O)NC[C@@H]1C(=O)Nc1cc(-c2cccc(OCC(F)(F)F)c2)n(-c2ccccc2Cl)n1 [Example 215]	–	1.4 nM	–

The next lines start with results.

IC50 [1]	IC50 [2]	Compound	also measured
–	1.1 nM	CCC(F)(F)c1cccc(-c2cc(NC(=O)[C@H]3CNC(=O)C3)nn2-c2ccccc2Cl)c1 [Example 140]	–
–	1.5 nM	CC(C)C(F)(F)c1cccc(-c2cc(NC(=O)[C@H]3CNC(=O)C3)nn2-c2ccccc2)c1 [Example 138]	–
–	3.8 nM	CCC(F)(F)c1cccc(-c2cc(NC(=O)[C@H]3CNC(=O)C3)nn2-c2ccccc2F)c1 [Example 182]	–
–	7.4 nM	CCCc1cccc(-c2cc(NC(=O)[C@@H]3CNC(=O)C3)nn2-c2ccccc2)c1 [Example 23]	–
–	1.2 nM	CC(C)(C)c1cccc(-c2cc(NC(=O)[C@H]3CNC(=O)C3)nn2-c2cccc(Cl)c2)c1 [Example 126]	–
–	1.1 nM	CCC(F)(F)c1cccc(-c2cc(NC(=O)[C@H]3CNC(=O)[C@@H]3C)nn2-c2ccccc2)c1 [Example 154]	–
7 nM	–	CCC(C)(C)C(=O)c1cccc(-c2cc(NC(=O)[C@@H]3CNC(=O)C3)nn2-c2ccccc2)c1 [Example 470]	–
–	3.7 nM	CCC(C)(C)c1cccc(-c2cc(NC(=O)[C@H]3CNC(=O)C3)nn2-c2ccccc2)c1 [Example 52]	–
11.5 nM	–	O=C1C[C@H](C(=O)Nc2cc(-c3cccc(COC(C(F)(F)F)C(F)(F)F)c3)n(-c3ccccc3)n2)CN1 [Example 246, (S)-5-oxopyrrolidine-3-carboxylic acid{1-phenyl-5-[3-(2,2,2-trifluoro-1-trifluoromethylethoxymethyl)phenyl]-1H-pyrazol-3-yl}amide]	–
12 nM	–	CC(C)COc1cccc(-c2cc(NC(=O)[C@H]3CNC(=O)C3)nn2-c2ccccc2)c1 [Example 287]	–
–	73 nM	CCCc1cccc(-c2cc(NC(=O)[C@@H]3CNC(=O)C3)nn2Cc2ccccc2)c1 [Example 99]	–
11.5 nM	–	CC(C)(C)COc1cccc(-c2cc(NC(=O)[C@@H]3CNC(=O)C3)nn2-c2ccccc2)c1 [Example 288]	–

— patent US8846746B2, “Pyrazole compound and pharmaceutical use thereof” (Japan Tobacco Inc., priority 2011, dated 2014)
